How the values were obtained:
[1] = tested on: P. falciparum transgenic reporter strain NF54-HGL; test: Standard membrane feeding assay (transmission blocking, oocysts in mosquito midgut); format: cell-based; details: Plasmodium falciparum, NF54, read-out: IC50, transmission of P. falciparum from infected blood into mosquitos (number of oocysts in the mosquito midgut)
Method: Standard Membrane Feeding Assays (SMFA) were performed using P. falciparum transgenic reporter strain NF54-HGL that expresses a firefly luciferase gene from an hsp70 promoter (Vos et al., 2015, Scientific Reports, 5). Stage V gametocytes were pre-incubated with test compound prior to mosquito feeding. Test compound is dissolved in DMSO to achieve a stock solution of 10 mM that was serially diluted in DMSO to achieve concentrations […] above the final test concentration. Subsequently, 10 μl of diluted compound in DMSO is then added to 990 μl pre-warmed RPMI 1640 medium supplemented with 367 μM hypoxanthine, 25 mM HEPES and 25 mM NaHCO3 (‘incomplete medium’). 40 μl of this intermediate dilution is added to 360 μl of parasite culture and incubated for 48 hrs at 37° C. in Eppendorf tubes, resulting in 0.1% final DMSO concentration. Hereafter, 300 μl of the gametocyte culture/compound mix is added to 180 μl of packed red blood cells and centrifuged for 20 seconds at 10,000×g. […] Mosquitoes are processed for luminescence measurements to determine relative oocyst intensities as described previously (Stone et al., 2014, Journal of Infectious Diseases, 5, 16). Data is analyzed by fitting a four-parameter logistic regression model using maximum likelihood to find the best fit as described previously (Dechering et al., 2017, Scientific Reports, 7, 1) as shown under FIG. 5.

[2] = phase 1a clinical trials; cited from earlier work

SMILES | IC50 [1] | Metabolite formation in human pharmacokinetic studies [2]
N#Cc1cc(NC(=O)[C@H]2c3ccccc3C(=O)N(CC(F)(F)F)[C@@H]2c2ccc(OC3CC3)nc2)ccc1F (single isomer, unassigned) [(1a)] | 323 nM | –
N#Cc1cc(NC(=O)[C@H]2c3ccccc3C(=O)N(CC(F)(F)F)[C@@H]2c2cccnc2)ccc1F [(+) SJ-733, 4-Isoquinolinecarboxamide, N-(3-cyano-4-fluorophenyl)-1,2,3,4-tetrahydro-1-oxo-3-(3-pyridinyl)-2-(2,2,2-trifluoroethyl)-, (3S,4S)-, reference compound] | – | significant formation of an inactive N-oxide metabolite
